Results from paper PMC7253723, “Chain-End Modifications and Sequence Arrangements of Antimicrobial Peptoids for Mediating Activity and Nano-Assembly” (Frontiers in Chemistry, 2020).
Several values for one entry are separate records, joined by “and”; a condition that tells them apart may be missing. Equal values may be shown once. Read-outs that look alike come from different tables or passages of the source. Each block holds one compound with its values, some of them ahead of it. Square brackets hold non-standard residues; d marks the D form. Peptide text beside a SMILES is read from it. * marks the point of attachment. Palmitoyl = CCCCCCCCCCCCCCCC(=O)*; Nspe = C[C@H](NCC(=O)O)c1ccccc1; Lauroyl = CCCCCCCCCCCC(=O)*; AEEA = NCCOCCOCC(=O)O; Nlys = NCCCCNCC(=O)O

How the values were obtained:
[1] = Small angle X-ray scattering (SAXS), size of nano-assemblies; format: physicochemical; details: 1 wt.% peptoid solution, fitted
Experimental: SAXS experiments were performed on the bioSAXS beamline B21 at Diamond Light Source, U.K., using a previously established protocol (Castelletto et al., [2019]). Briefly, solutions containing 1 wt.% peptoid were loaded into a set of PCR tubes fitted in the 96-well plate of the BioSAXS robot. From there, the robot loaded the solutions into a quartz capillary perpendicularly placed in the path of the incident X-ray beam. SAXS data, collected using a Dectris PILATUS 2 M detector at a fixed camera length of 3.9 m, is presented as scattering intensity vs. q = 4π sinθ /λ (2θ: scattering angle; wavelength: λ = 1 Å). See Supplementary Information for description of SAXS data fitting.

[2] = Analytical RP-HPLC elution (ACN %) as measure of hydrophobicity; format: physicochemical; details: chromatographic, C18 column (250 × 4.6 mm Nucleosil), 30 min gradient 5–95% ACN in water with 0.1% TFA, 1 mL/min, used as measure of hydrophobicity
Experimental: Peptoids were synthesized on resin manually or with an automated synthesizer (Prelude X, Gyros Protein Technologies) using a solid phase “submonomer” approach (Zuckermann et al., [1992]; Lau, [2014]; Lau et al., [2017]). Briefly, the Fmoc protected rink amide resin was deprotected with 20% piperidine for 20 min, applied twice. Each residue was added by treatment to a mixture of bromoacetic acid (20 times excess) and diisopropyl-carbodiimide (18.5 times excess) for 15 min, followed by a halo-substitution reaction with appropriate primary amine submonomers. For the attachment of a di ethylene glycol linker, Fmoc-amino-3,6 dioxaoctanoic acid (1.8 mmol), and equivalent moles of HBTU ((2-(1H-benzotriazol-1-yl)-1,1,3,3-tetramethyluronium hexafluorophosphate) were reacted with the terminal amino group in the presence of N,N-diisopropylethylamine (DIPEA, 2.7 mmol). This reaction was carried out for 2 h at 37°C and repeated a second time for 4 h, to ensure coupling. Like resin Fmoc deprotection, EG2 N-terminal Fmoc deprotection was achieved using 20% piperidine for 20 min, applied twice. Different chain lengths of saturated fatty acids, i.e., pelargonic acid (C8), lauric acid (C11), and palmitic acid (C15) were subsequently coupled using the HBTU amide coupling as reported previously (Lau et al., [2017]). After solid phase synthesis, the resin was cleaved and side chains were deprotected for 30 min using a standard TFA:TIPS:H2O cocktail (95:2.5:2.5 v/v/v). Excess TFA was removed using a rotary evaporator and the peptoid was precipitated from the oily product using diethyl ether. The collected material was dissolved in small amounts of 1:1 acetonitrile:water (ACN:H2O) to ease sample transfer, and further dried in a lyophilizer. Dried crude products were weighed and dissolved in ACN-H2O mixtures for preparative RP-HPLC (Dionex Ultimate 3000) with a C18 column (250 × 10 mm Phenomenex Jupiter). Fractions containing the pure product were identified by ESI-LC-MS (Agilent 1200 with a Poroshell C18 column coupled to an Agilent 6130 mass spectrometer) and by analytical RP-HPLC (Dionex P680) using a C18 column (250 × 4.6 mm “Nucleosil”) with a 30 min gradient of 5–95% acetonitrile (ACN) in water containing 0.1% TFA at 1 mL/min. The purified fractions of peptoids and lipopeptoids were later stored as aliquots at −20°C until further analysis.

[3] = Cryo-TEM, size of nano-assemblies; format: physicochemical; details: vitrified sample
Experimental: Sizes of selected lipopeptoid nano-assemblies were verified using a field emission cryo-electron microscope (JEOL JEM3200FSC), operating at 200 kV and at −187°C, configured in bright field mode and zero loss energy filtering (omega type) with a slit width of 20 eV. Sizes of selected lipopeptoids nano-assemblies were measured from photographs recorded using a Gatan Ultrascan 4000 CCD camera. Vitrified specimens were prepared on Quantifoil 3.5/1 holey carbon copper grids (hole size of 3.5 μm). The grids were first plasma cleaned using a Gatan Solarus 9500 plasma cleaner and then transferred into the environmental chamber of an automated FEI Vitrobot device at room temperature and 100% humidity. Thereafter, 3 μL of the sample solution was applied on the grid, which was blotted twice for 5 s and then vitrified in a 1:1 mixture of liquid ethane and propane at a temperature of −180°C. The grids with vitrified sample solution were maintained at liquid nitrogen temperature and then cryo-transferred to the microscope.

[4] = Critical aggregation concentration (CAC) Nile red fluorescence assay; format: physicochemical; details: room temperature
Experimental: Nile red (NR) fluorescence was used to measure critical aggregation concentration (CAC) for the synthesized lipopeptoids. Lipopeptoids were dissolved at 2.5 × 10^−2 to 1 wt.% in a dilute solution of Nile red (0.25 μg/100 mL, i.e. ~10 nM concentration) prepared in water. NR was excited at 552 nm and emission was recorded at room temperature in the range 550–750 nm using a 10.0 × 5.0 mm^2 quartz cell (Jasco spectrofluorimeter FP-6500). The intensity of the peak centered around 610 nm is shown in the data presented in Section results and discussion.
We first examined with a CAC assay whether coupling a hydrophobic tail to AMPMs and inserting the kk and EG2 components is a viable design for generating self-assembling lipopeptoids. The CAC measures the concentration above which hydrophobic pockets (e.g., lipophilic cores of micelles) are formed, and lower CACs indicate higher propensities of self-assembly. In our experiments, the CAC is indicated by an inflection in the increase in emission intensity of a lipophilic fluorophore tracer (Nile Red) that emits more strongly when partitioned into hydrophobic lower dielectric environments (see Figure S6 for an example analysis).

[5] = Dynamic light scattering (DLS), hydrodynamic radius of nano-assemblies; format: physicochemical; details: 0.4 wt.% in deionized water, 0.22 μm filtered, 25°C, detection angle 90°
Experimental: DLS measurements were carried out at room temperature (25°C) using an ALV/LSE-5004 instrument equipped with He-Ne laser (λ = 632.8 nm) at a detection angle of θ = 90° (Lau et al., [2017]). Samples were prepared at a concentration of 0.4 wt.% in deionized water (DI) water and further filtered using 0.22 μm pore size surfactant-free cellulose acetate (SFCA) syringe filters (Sigma Aldrich, UK) to avoid particulate contamination.

[6] = tested on: Escherichia coli (ATCC 25922); format: cell-based
Experimental: (§1) Technical triplicates (n = 3) or more of samples at each concentration were analyzed.

[7] = tested on: Pseudomonas aeruginosa (PA01); format: cell-based
Experimental: as §1

[8] = tested on: Staphylococcus aureus (NCTC 4135); format: cell-based
Experimental: as §1

[9] = Nile red fluorescence (~10 nM NR in water), lipopeptoids 2.5 × 10^-2 to 1 wt.%, excitation 552 nm, peak around 610 nm, inflection in emission intensity
[10] = MH broth microdilution (CLSI M07-A10), ~5 × 10^5 CFU/mL, overnight 37°C, OD 600 nm, MIC = concentration with OD halfway between minimum and maximum, sigmoidal fit ± SD, n = 3 or more, maximum tested 100 μM

radius of nano-assemblies (SAXS) [1]: 24 ± 5 nm
elution ACN % (RP-HPLC retention) [2]: 82 ACN %
diameter of smallest non-compact aggregates (TEM) [3]: ca. 5 nm
CAC [4, 9]: 38 µM and 38 ± 3 µM
CAC ([4]; Nile red fluorescence in water, CAC expressed in wt.%): 0.0075 wt.%
hydrodynamic radius (RH) [5]: ca. 50 nm
SMILES: CCCCCCCCCCCCCCCC(=O)NCCOCCOCC(=O)N(CCCCN)CC(=O)N(CC(=O)N(CC(=O)N(CCCCN)CC(=O)N(CC(=O)N(CC(=O)N(CCCCN)CC(=O)N(CC(=O)N(CC(=O)N(CCCCN)CC(=O)N(CC(=O)N(CC(N)=O)[C@@H](C)c1ccccc1)[C@@H](C)c1ccccc1)[C@@H](C)c1ccccc1)[C@@H](C)c1ccccc1)[C@@H](C)c1ccccc1)[C@@H](C)c1ccccc1)[C@@H](C)c1ccccc1)[C@@H](C)c1ccccc1 [C15-EG2-(kss)4] ({Palmitoyl-AEEA}-[Nlys][Nspe][Nspe][Nlys][Nspe][Nspe][Nlys][Nspe][Nspe][Nlys][Nspe][Nspe]-NH2)

SMILES: CCCCCCCCCCCCCCCC(=O)NCCOCCOCC(=O)N(CCCCN)CC(=O)N(CC(=O)N(CC(=O)N(CCCCN)CC(=O)N(CC(=O)N(CC(=O)N(CCCCN)CC(=O)N(CC(=O)N(CC(=O)N(CCCCN)CC(=O)N(CC(=O)N(CC(=O)N(CCCCN)CC(=O)N(CCCCN)CC(N)=O)[C@@H](C)c1ccccc1)[C@@H](C)c1ccccc1)[C@@H](C)c1ccccc1)[C@@H](C)c1ccccc1)[C@@H](C)c1ccccc1)[C@@H](C)c1ccccc1)[C@@H](C)c1ccccc1)[C@@H](C)c1ccccc1 [C15-EG2-(kss)4-kk] ({Palmitoyl-AEEA}-[Nlys][Nspe][Nspe][Nlys][Nspe][Nspe][Nlys][Nspe][Nspe][Nlys][Nspe][Nspe][Nlys][Nlys]-NH2)
Hydrodynamic radius RH (DLS): 45 nm
Antimicrobial activity (MIC) E. coli [6]: 44 ± 5 µM
Antimicrobial activity (MIC) P. aeruginosa [7]: >100 µM
Antimicrobial activity (MIC) S. aureus [8]: 36 ± 5 µM

elution ACN % (RP-HPLC retention) [2]: 66 ACN %
CAC [4, 9]: 304 µM and 300 ± 25 µM
SMILES: CCCCCCCCCCCCCCCC(=O)N(CCCCN)CC(=O)N(CC(=O)N(CC(=O)N(CCCCN)CC(=O)N(CC(=O)N(CC(=O)N(CCCCN)CC(=O)N(CC(=O)N(CC(=O)N(CCCCN)CC(=O)N(CC(=O)N(CC(=O)N(CCCCN)CC(=O)N(CCCCN)CC(N)=O)[C@@H](C)c1ccccc1)[C@@H](C)c1ccccc1)[C@@H](C)c1ccccc1)[C@@H](C)c1ccccc1)[C@@H](C)c1ccccc1)[C@@H](C)c1ccccc1)[C@@H](C)c1ccccc1)[C@@H](C)c1ccccc1 [C15-(kss)4-kk] (Palmitoyl-[Nlys][Nspe][Nspe][Nlys][Nspe][Nspe][Nlys][Nspe][Nspe][Nlys][Nspe][Nspe][Nlys][Nlys]-NH2)

SMILES: CCCCCCCCCCCC(=O)NCCOCCOCC(=O)N(CCCCN)CC(=O)N(CC(=O)N(CC(=O)N(CCCCN)CC(=O)N(CC(=O)N(CC(=O)N(CCCCN)CC(=O)N(CCCCN)CC(N)=O)[C@@H](C)c1ccccc1)[C@@H](C)c1ccccc1)[C@@H](C)c1ccccc1)[C@@H](C)c1ccccc1 [C11-EG2-(kss)2-kk] ({Lauroyl-AEEA}-[Nlys][Nspe][Nspe][Nlys][Nspe][Nspe][Nlys][Nlys]-NH2)
elution ACN % (RP-HPLC retention) [2]: 52 ACN %
CAC [4, 9]: 198 µM and 200 ± 17 µM

SMILES: CCCCCCCCCCCC(=O)NCCOCCOCC(=O)N(CCCCN)CC(=O)N(CC(=O)N(CC(=O)N(CCCCN)CC(=O)N(CC(=O)N(CC(=O)N(CCCCN)CC(=O)N(CC(=O)N(CC(=O)N(CCCCN)CC(=O)N(CCCCN)CC(N)=O)[C@@H](C)c1ccccc1)[C@@H](C)c1ccccc1)[C@@H](C)c1ccccc1)[C@@H](C)c1ccccc1)[C@@H](C)c1ccccc1)[C@@H](C)c1ccccc1 [C11-EG2-(kss)3-kk] ({Lauroyl-AEEA}-[Nlys][Nspe][Nspe][Nlys][Nspe][Nspe][Nlys][Nspe][Nspe][Nlys][Nlys]-NH2)
elution ACN % (RP-HPLC retention) [2]: 54 ACN %
Antimicrobial activity (MIC) E. coli [6, 10]: 3 ± 0.2 µM
Antimicrobial activity (MIC) P. aeruginosa ([7]; PA01, MH broth microdilution (CLSI M07-A10), ~5 × 10^5 CFU/mL, overnight 37°C, OD 600 nm, MIC = concentration with OD halfway between minimum and maximum, sigmoidal fit ± SD, n = 3 or more, maximum tested 100 μM): 15 ± 0.4 µM
Antimicrobial activity (MIC) S. aureus [8, 10]: 1 ± 0.1 µM
CAC [4, 9]: 310 ± 38 µM
CAC ([4]; Nile red fluorescence in water, CAC expressed in mg/mL): 0.52 mg/mL
